# Experimental data published in patent US8247211B2, “Glycopeptide antibiotics” (American Cyanamid Company, priority 2001, dated 2012).
# Legend:
# Enterococcus sp. = assay: In vitro antibacterial evaluation: minimum inhibitory concentration (MIC), broth dilution method; assay type: cell-based; settings: broth dilution, 18 hours at 35° C.
# How it was run: (§1)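 NCCLS M7-A2 broth dilution; Muller-Hinton II […]; 5×10^5 CFU/mL; 64-0.06 μg/mL. MIC = lowest concentration with no growth.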
# Escherichia coli = assay: as above; assay type: cell-based; settings: 5×10^5 CFU/mL, 18 hours at 35° C.
# How it was run: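 Using Muller-Hinton II […] and an inoculum of 5×10^5 CFU/mL, antibiotic dilutions from 64 down to 0.06 μg/mL were tested following NCCLS M7-A2. The MIC is the lowest concentration inhibiting growth, including in methicillin-, penicillin- or vancomycin-resistant clinical isolates.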
# Staphylococcus sp. = assay: as above; assay type: cell-based; settings: for MIC Staphylococcus aureus (ATCC 29213): strain ATCC 29213; for MIC Staphylococcus aureus (GC 3051): strain GC 3051; for MIC Staphylococcus aureus (GC 3053): strain GC 3053; for MIC Staphylococcus aureus (GC 4541): strain GC 4541; for MIC Staphylococcus aureus (GC 4542): strain GC 4542; for MIC Staphylococcus aureus (GC 4545): strain GC 4545; for MIC Staphylococcus haemolyticus (GC 4546): strain GC 4546; for MIC Coagulase Negative Staphylococcus (GC 4547): strain GC 4547; for MIC Coagulase Negative Staphylococcus (GC 4548): strain GC 4548; for MIC Coagulase Negative Staphylococcus (GC 4549): strain GC 4549; for MIC Coagulase Negative Staphylococcus (GC 4551): strain GC 4551; for MIC Coagulase Negative Staphylococcus (GC 6257): strain GC 6257
# How it was run: as §1
# Streptococcus sp. = assay: as above; assay type: cell-based; settings: broth dilution, 18 hours at 35° C.
# How it was run: as §1
# [1] = system: Enterococcus faecalis (GC 6189), vancomycin resistant strain; assay: Acute lethal infection in mice (ED50); assay type: in vivo; settings: female CD-1 mice, intraperitoneal challenge, intravenous dose 30 min. after infection, 7 day survival ratios
# How it was run: (§2)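 IP bacterial challenge, female CD-1 mice; inoculum lethal to untreated controls in 24-48 hr. IV dosing in saline or 5% dextrose 30 min post-infection, 5 mice/dose. ED50 from 7-day survival, 3 tests pooled.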
# [2] = system: Staphylococcus aureus-SMITH (GC 4543); assay: Acute lethal infection in mice (ED50); assay type: in vivo; settings: female CD-1 mice, intraperitoneal challenge, intravenous dose 30 min. after infection, 7 day survival ratios
# How it was run: as §2
# [3] = system: Streptococcus pneumoniae (GC 1894), penicillin resistant strain; assay: Acute lethal infection in mice (ED50); assay type: in vivo; settings: female CD-1 mice, intraperitoneal challenge, intravenous dose 30 min. after infection, 7 day survival ratios
# How it was run: as §2
# [4] = assay type: in vivo; settings: mice, 20 mg/kg intravenously daily for 9 days, serum on day 10
# Experimental: 20-day-old CD-1 mice were divided into a vehicle control group (5 mice) and a treatment group (5 mice). Samples of glycopeptide antibiotics were administered at 20 mg/kg intravenously daily for 9 days. Animals were necropsied on day 10 Sera were analyzed for BUN (blood urea nitrogen), creatinine, AST (aspartic aminotransferase), and ALT (alanine aminotransferase) by routine, standard, automated methods using an Hitachi 747 chemistry analyzer.
# [5] = Anatomic pathology (heart and kidney histopathology) in mice; assay type: in vivo, CD-1 mice; settings: 20 mg/kg intravenously daily for 9 days, microscopic histopathology on day 10
# How it was run: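 Histopathology on H&E-stained, paraffin-embedded sections, subjectively scored (slight, mild, moderate, marked, severe) relative to untreated controls. Dosing: glycopeptide antibiotics 20 mg/kg intravenously once daily ×9 days in 20-day-old CD-1 mice, n=5 per group including vehicle.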
# [6] = broth dilution, 18 hours at 35° C.
compound,measurement,setting,value
"CC(c1ccccc1)C1NC(=O)CNC(=O)C(CO)NC(=O)C(C(O)C2CNC(=N)N2C2OC(CO)C(O)C(O)C2O)NC(=O)C(C(O)C2CNC(=N)N2)NC(=O)C(Cc2ccc(OC3OC(CO)C(OC4OC5COC6(OC5C(O)C4O)C4CC5CC(C4)CC6C5)C(O)C3O)cc2)NC1=O (stereo not drawn) [Example 105, Cyclo[glycyl-β-methylphenylalanyl-O-[4-O-[4,6-O-(2-adamantylidene)hexopyranosyl]hexopyranosyl]tyrosyl-3-(2-iminoimidazolidin-4-yl)seryl-3-(3-hexopyranosyl-2-iminoimidazoliclin-4-yl)serylseryl]]",MIC Enterococcus avium (GC 4558),Enterococcus sp.; Enterococcus avium (GC 4558),1 to 2 µg/mL
same,MIC Enterococcus faecalis (ATCC 29212),Enterococcus sp.; Enterococcus faecalis (ATCC 29212),1 to 2 µg/mL
same,MIC Enterococcus faecalis (GC 2242),Enterococcus sp.; Enterococcus faecalis (GC 2242),0.5 to 2 µg/mL
same,MIC Enterococcus faecalis (GC 2691),Enterococcus sp.; Enterococcus faecalis (GC 2691),1 to 2 µg/mL
same,MIC Enterococcus faecalis (GC 3059),Enterococcus sp.; Enterococcus faecalis (GC 3059),1 to 2 µg/mL
same,MIC Enterococcus faecalis (GC 4552),Enterococcus sp.; Enterococcus faecalis (GC 4552),1 to 2 µg/mL
same,MIC Enterococcus faecalis (GC 4553),Enterococcus sp.; Enterococcus faecalis (GC 4553),1 to 2 µg/mL
same,MIC Enterococcus faecalis (GC 4554),Enterococcus sp.; Enterococcus faecalis (GC 4554),1 to 2 µg/mL
same,MIC Enterococcus faecalis (GC 6189),Enterococcus sp.; Enterococcus faecalis (GC 6189),1 to 2 µg/mL
same,MIC Enterococcus faecium (GC 2243),Enterococcus sp.; Enterococcus faecium (GC 2243),1 to 2 µg/mL
same,MIC Enterococcus faecium (GC 4556),Enterococcus sp.; Enterococcus faecium (GC 4556),0.5 to 2 µg/mL
same,MIC Enterococcus faecium (GC 4557),Enterococcus sp.; Enterococcus faecium (GC 4557),1 to 2 µg/mL
same,MIC Enterococccus avium (GC 4558),Enterococcus sp.; 5×10^5 CFU/mL,1 to 2 µg/mL
same,MIC Enterococccus faecalis (ATCC 29212),Enterococcus sp.; 5×10^5 CFU/mL,1 to 2 µg/mL
same,MIC Enterococccus faecalis (GC 2691),Enterococcus sp.; 5×10^5 CFU/mL,1 to 2 µg/mL
same,MIC Enterococccus faecalis (GC 3059),Enterococcus sp.; 5×10^5 CFU/mL,1 to 2 µg/mL
same,MIC Enterococccus faecalis (GC 4552),Enterococcus sp.; 5×10^5 CFU/mL,1 to 2 µg/mL
same,MIC Enterococccus faecalis (GC 4553),Enterococcus sp.; 5×10^5 CFU/mL,1 to 2 µg/mL
same,MIC Enterococccus faecalis (GC 4554),Enterococcus sp.; 5×10^5 CFU/mL,1 to 2 µg/mL
same,MIC Enterococccus faecalis (GC 6189),Enterococcus sp.; 5×10^5 CFU/mL,1 to 2 µg/mL
same,MIC Enterococccus faecium (GC 2243),Enterococcus sp.; 5×10^5 CFU/mL,1 to 2 µg/mL
same,MIC Enterococccus faecium (GC 4556),Enterococcus sp.; 5×10^5 CFU/mL,0.5 to 2 µg/mL
same,MIC Enterococccus faecium (GC 4557),Enterococcus sp.; 5×10^5 CFU/mL,1 to 2 µg/mL
same,MIC Enterococcus faecalis (GC 2242),Enterococcus sp.; 5×10^5 CFU/mL,0.5 to 2 µg/mL
same,MIC Escherichia coli (ATCC 25922),Escherichia coli,16 to 32 µg/mL
same,MIC Escherichia coli (GC 4559),Escherichia coli,32 µg/mL
same,MIC Escherichia coli (GC 4560),Escherichia coli,0.5 to 2 µg/mL
same,MIC Staphylococcus aureus (ATCC 29213),Staphylococcus sp.,<0.5 to 1 µg/mL
same,MIC Staphylococcus aureus (ATCC 29213),Staphylococcus sp.; [6],<0.5 to 1 µg/mL
same,MIC Staphylococcus aureus (GC 3051),Staphylococcus sp.,0.5 to 1 µg/mL
same,MIC Staphylococcus aureus (GC 3051),Staphylococcus sp.; [6],0.5 to 1 µg/mL
same,MIC Staphylococcus aureus (GC 3053),Staphylococcus sp.,1 to 2 µg/mL
same,MIC Staphylococcus aureus (GC 3053),Staphylococcus sp.; [6],1 to 2 µg/mL
same,MIC Staphylococcus aureus (GC 4541),Staphylococcus sp.,<0.5 to 1 µg/mL
same,MIC Staphylococcus aureus (GC 4541),Staphylococcus sp.; [6],<0.5 to 1 µg/mL
same,MIC Staphylococcus aureus (GC 4542),Staphylococcus sp.,0.5 to 1 µg/mL
same,MIC Staphylococcus aureus (GC 4542),Staphylococcus sp.; [6],0.5 to 1 µg/mL
same,MIC Staphylococcus aureus (GC 4545),Staphylococcus sp.,<0.5 to 1 µg/mL
same,MIC Staphylococcus aureus (GC 4545),Staphylococcus sp.; [6],<0.5 to 1 µg/mL
same,MIC Staphylococcus haemolyticus (GC 4546),Staphylococcus sp.,<0.5 to 1 µg/mL
same,MIC Staphylococcus haemolyticus (GC 4546),Staphylococcus sp.; [6],<0.5 to 1 µg/mL
same,MIC Coagulase Negative Staphylococcus (GC 4547),Staphylococcus sp.,0.5 to 1 µg/mL
same,MIC Coagulase Negative Staphylococcus (GC 4547),Staphylococcus sp.; [6],0.5 to 1 µg/mL
same,MIC Coagulase Negative Staphylococcus (GC 4548),Staphylococcus sp.,<0.5 to 1 µg/mL
same,MIC Coagulase Negative Staphylococcus (GC 4548),Staphylococcus sp.; [6],<0.5 to 1 µg/mL
same,MIC Coagulase Negative Staphylococcus (GC 4549),Staphylococcus sp.,0.5 to 1 µg/mL
same,MIC Coagulase Negative Staphylococcus (GC 4549),Staphylococcus sp.; [6],0.5 to 1 µg/mL
same,MIC Coagulase Negative Staphylococcus (GC 4551),Staphylococcus sp.,<0.5 to 1 µg/mL
same,MIC Coagulase Negative Staphylococcus (GC 4551),Staphylococcus sp.; [6],<0.5 to 1 µg/mL
same,MIC Coagulase Negative Staphylococcus (GC 6257),Staphylococcus sp.,0.5 to 1 µg/mL
same,MIC Coagulase Negative Staphylococcus (GC 6257),Staphylococcus sp.; [6],0.5 to 1 µg/mL
same,MIC Streptococcus agalactiae (GC 4564),Streptococcus sp.; Streptococcus agalactiae (GC 4564),<0.06 to 0.25 µg/mL
same,MIC Streptococcus pneumoniae (ATCC 6301),Streptococcus sp.; Streptococcus pneumoniae (ATCC 6301),<0.06 µg/mL
same,MIC Streptococcus pneumoniae (GC 1894),Streptococcus sp.; Streptococcus pneumoniae (GC 1894),<0.06 µg/mL
same,MIC Streptococcus pneumoniae (GC 4565),Streptococcus sp.; Streptococcus pneumoniae (GC 4565),<0.06 µg/mL
same,MIC Streptococcus pyogenes (GC 4563),Streptococcus sp.; Streptococcus pyogenes (GC 4563),<0.06 to 0.12 µg/mL
same,MIC Streptococcus agalactiae (GC 4564),Streptococcus sp.; 5×10^5 CFU/mL,<0.06 to 0.25 µg/mL
same,MIC Streptococcus pneumoniae (GC 1894),Streptococcus sp.; 5×10^5 CFU/mL,<0.06 µg/mL
same,MIC Streptococcus pneumoniae (GC 4565),Streptococcus sp.; 5×10^5 CFU/mL,<0.06 µg/mL
same,MIC Streptococcus pneumonine (ATCC 6301),Streptococcus sp.; 5×10^5 CFU/mL,<0.06 µg/mL
same,MIC Streptococcus pyogenes (GC 4563),Streptococcus sp.; 5×10^5 CFU/mL,<0.06 to 0.12 µg/mL
same,"median effective dose (ED50), Enterococcus faecalis (GC 6189)",[1],1.8-1.96
same,"median effective dose (ED50), Staphylococcus aureus-SMITH (GC 4543)",[2],0.04-0.08
same,"median effective dose (ED50), Streptococcus pneumoniae (GC 1894)",[3],0.04 mg/kg
same,"Clinical Chemistry (Day 10) % of Control, ALT",[4],+480%
same,"Clinical Chemistry (Day 10) % of Control, AST",[4],+205%
same,"Clinical Chemistry (Day 10) % of Control, BUN",[4],+35%
same,"Anatomical Pathology (Day 10), Heart",[5],+++
same,"Anatomical Pathology (Day 10), Kidney",[5],+++
